According to article PMC4474394 (OncoTargets and therapy, 2015):

Experiment: In vivo biodistribution in NCI-H157-bearing BALB/c nude mice
Conditions: 99mTc-labeled peptide, judged from weak accumulation in brain tissue

TMPFLFCNVNDVCNFASRNDYSKKK [T7]
Blood–brain barrier penetration: poor
